Measurements from patent US9510596B2, “Binary pesticidal and fungicidal mixtures” (BAYER CROPSCIENCE AG, priority 2012, dated 2016).

Test system: Phakopsora pachyrhizi
Test: Phakopsora test (soybean)/seed treatment
Assay type: in vivo
Conditions: greenhouse, infected leaf area per plant
Experimental: The test is performed under greenhouse conditions.
Soy bean seeds, treated with the active compound or compound combinations, solved in N-methyl-2-pyrrolidon and diluted with water to the desired dosages, were sown in 6*6 cm pots containing 4 cm of a 1:1 mix of steamed field soil and sand.
The plants were grown at 22° C. and 90% relative humidity in a greenhouse chamber. 21 days old plants were inoculated with an aqueous spore suspension of the causal agent of soybean rust (Phakopsora pachyrhizi) and stay for 24 h without light in an incubation cabinet at approximately 24° C. and a relative atmospheric humidity of 95%. The plants remain in the incubation cabinet at approximately 24° C. and a relative atmospheric humidity of approximately 80% and a day/night interval of 12 h.
Assessment consisted of evaluation of infected leaf area per plant. 0% means an efficacy which corresponds to that of the control, while an efficacy of 100% means that no disease is observed.

CNC(=O)c1cc(C#N)cc(C)c1NC(=O)c1cc(Cn2nnc(C(F)(F)F)n2)nn1-c1ncccc1Cl [2.5, 1-(3-chloropyridin-2-yl)-N-[4-cyano-2-methyl-6-(methylcarbamoyl)phenyl]-3-{[5-(trifluoromethyl)-2H-tetrazol-2-yl]methyl}-1H-pyrazole-5-carboxamide]
Efficacy in % found* (application rate 2.5 ppm a.i.): 13%

CC1CC(C)(C)c2cccc(NC(=O)c3cn(C)nc3C(F)F)c21 (stereo not drawn) [(I-1), 3-(difluoromethyl)-1-methyl-N-(1,1,3-trimethyl-2,3-dihydro-1H-inden-4-yl)-1H-pyrazole-4-carboxamide]
Efficacy in % found* (application rate 25 ppm a.i., 0% = control, 100% = no disease): 25%

CNC(=O)c1cc(C#N)cc(C)c1NC(=O)c1cc(Br)nn1-c1ncccc1Cl [2.2, Cyantraniliprole, reference compound]
Efficacy in % found* (application rate 0.5 ppm a.i.): 0%
